# Species: Rattus norvegicus
# Assay: DrugMatrix - Regimen: Daily Repeat
# Type: toxicity, organism-based, Sprague-Dawley
# Set-up: regimen Daily Repeat, gender Male, age 6-8 weeks
# Details: in vivo, vehicle 100 % SALINE; for ABSOLUTE MONOCYTE / ABSOLUTE SEGMENTED NEUTROPHIL / BASOPHIL / EOSINOPHIL / ERYTHROCYTE COUNT / HEMATOCRIT / HEMOGLOBIN / LEUKOCYTE COUNT / LYMPHOCYTE / MEAN CORPUSCULAR HEMOGLOBIN / MEAN CORPUSCULAR HEMOGLOBIN CONCENTRATION / MEAN CORPUSCULAR VOLUME / MONOCYTE / NEUTROPHIL / PLATELET COUNT / ABSOLUTE BASOPHIL / ABSOLUTE EOSINOPHIL / ABSOLUTE LYMPHOCYTE: tissue Blood; for ALANINE AMINOTRANSFERASE / ALBUMIN / ALKALINE PHOSPHATASE / ASPARTATE AMINOTRANSFERASE / BLOOD UREA NITROGEN / CHLORIDE / CHOLESTEROL / CREATINE PHOSPHOKINASE / CREATININE / GLUCOSE / LACTATE DEHYDROGENASE / LIPASE / PHOSPHORUS / POTASSIUM / SODIUM / TOTAL BILIRUBIN / TOTAL PROTEIN / URIC ACID: tissue Plasma
# [1] = ip, 160 mg/kg, 120 h, route intraperitoneal, dose level High, time 5 day
# [2] = ip, 160 mg/kg, […], route intraperitoneal, dose level High, time 14 day
# [3] = ip, 160 mg/kg, […], route intraperitoneal, dose level High, time 28 day
# [4] = iv, 0 mg/kg, 72 h, dose level Control, time 3 day
smiles,measurement,setting,value
NCC[C@H](O)C(=O)N[C@@H]1C[C@H](N)[C@@H](O[C@H]2O[C@H](CN)[C@@H](O)[C@H](O)[C@H]2O)[C@H](O)[C@H]1O[C@H]1O[C@H](CO)[C@@H](O)[C@H](N)[C@H]1O [AMIKACIN],ABSOLUTE MONOCYTE,[1],130 cells/µL
same,ABSOLUTE SEGMENTED NEUTROPHIL,[1],830 cells/µL
same,BASOPHIL,[1],0.52%
same,EOSINOPHIL,[1],0.92%
same,ERYTHROCYTE COUNT,[1],7.72 x10E6/uL
same,HEMATOCRIT,[1],47.66%
same,HEMOGLOBIN,[1],15.46 G/DL
same,LEUKOCYTE COUNT,[1],8.36 x10E3/uL
same,LYMPHOCYTE,[1],86.2%
same,MEAN CORPUSCULAR HEMOGLOBIN,[1],20.02 pg
same,MEAN CORPUSCULAR HEMOGLOBIN CONCENTRATION,[1],32.44 G/DL
same,MEAN CORPUSCULAR VOLUME,[1],61.7 fL
same,MONOCYTE,[1],1.62%
same,NEUTROPHIL,[1],10.4%
same,PLATELET COUNT,[1],1365.6 x10E3/uL
same,ALANINE AMINOTRANSFERASE,[1],28.8 u/L
same,ALBUMIN,[1],3.56 G/DL
same,ALKALINE PHOSPHATASE,[1],209.4 u/L
same,ASPARTATE AMINOTRANSFERASE,[1],80.6 u/L
same,BLOOD UREA NITROGEN,[1],14.6 mg/dL
same,CHLORIDE,[1],107.2 MEQ/L
same,CHOLESTEROL,[1],62.4 mg/dL
same,CREATINE PHOSPHOKINASE,[1],231.2 u/L
same,CREATININE,[1],0.56 mg/dL
same,GLUCOSE,[1],136.6 mg/dL
same,LACTATE DEHYDROGENASE,[1],109.8 u/L
same,LIPASE,[1],23.8 u/L
same,PHOSPHORUS,[1],11.74 mg/dL
same,POTASSIUM,[1],5.46 MEQ/L
same,SODIUM,[1],147 MEQ/L
same,TOTAL BILIRUBIN,[1],0.22 mg/dL
same,TOTAL PROTEIN,[1],6.1 G/DL
same,URIC ACID,[1],1.12 mg/dL
same,ABSOLUTE BASOPHIL,[2],120 cells/µL
same,ABSOLUTE EOSINOPHIL,[2],120 cells/µL
same,ABSOLUTE LYMPHOCYTE,[2],10400 cells/µL
same,ABSOLUTE MONOCYTE,[2],290 cells/µL
same,ABSOLUTE SEGMENTED NEUTROPHIL,[2],1840 cells/µL
same,BASOPHIL,[2],0.88%
same,EOSINOPHIL,[2],0.88%
same,ERYTHROCYTE COUNT,[2],7.68 x10E6/uL
same,HEMATOCRIT,[2],45.32%
same,HEMOGLOBIN,[2],14.88 G/DL
same,LEUKOCYTE COUNT,[2],12.88 x10E3/uL
same,LYMPHOCYTE,[2],80.34%
same,MEAN CORPUSCULAR HEMOGLOBIN,[2],19.4 pg
same,MEAN CORPUSCULAR HEMOGLOBIN CONCENTRATION,[2],32.88 G/DL
same,MEAN CORPUSCULAR VOLUME,[2],59.02 fL
same,MONOCYTE,[2],2.26%
same,NEUTROPHIL,[2],15.14%
same,PLATELET COUNT,[2],1513.4 x10E3/uL
same,ABSOLUTE BASOPHIL,[3],97 cells/µL
same,ABSOLUTE EOSINOPHIL,[3],87 cells/µL
same,ABSOLUTE LYMPHOCYTE,[3],9100 cells/µL
same,ABSOLUTE MONOCYTE,[3],180 cells/µL
same,ABSOLUTE SEGMENTED NEUTROPHIL,[3],1340 cells/µL
same,BASOPHIL,[3],0.88%
same,EOSINOPHIL,[3],0.84%
same,ERYTHROCYTE COUNT,[3],7.95 x10E6/uL
same,HEMATOCRIT,[3],44.83%
same,HEMOGLOBIN,[3],14.88 G/DL
same,LEUKOCYTE COUNT,[3],10.86 x10E3/uL
same,LYMPHOCYTE,[3],83.57%
same,MEAN CORPUSCULAR HEMOGLOBIN,[3],18.72 pg
same,MEAN CORPUSCULAR HEMOGLOBIN CONCENTRATION,[3],33.24 G/DL
same,MEAN CORPUSCULAR VOLUME,[3],56.35 fL
same,MONOCYTE,[3],1.64%
same,NEUTROPHIL,[3],12.66%
same,PLATELET COUNT,[3],1439.3 x10E3/uL
same,ALANINE AMINOTRANSFERASE,[2],30.4 u/L
same,ALBUMIN,[2],3.44 G/DL
same,ALKALINE PHOSPHATASE,[2],190.6 u/L
same,ASPARTATE AMINOTRANSFERASE,[2],79.6 u/L
same,BLOOD UREA NITROGEN,[2],13 mg/dL
same,CHLORIDE,[2],107.8 MEQ/L
same,CHOLESTEROL,[2],70.8 mg/dL
same,CREATINE PHOSPHOKINASE,[2],151.2 u/L
same,CREATININE,[2],0.5 mg/dL
same,GLUCOSE,[2],119.8 mg/dL
same,LACTATE DEHYDROGENASE,[2],78.6 u/L
same,LIPASE,[2],32 u/L
same,PHOSPHORUS,[2],9.94 mg/dL
same,POTASSIUM,[2],5.62 MEQ/L
same,SODIUM,[2],150.6 MEQ/L
same,TOTAL BILIRUBIN,[2],0.2 mg/dL
same,TOTAL PROTEIN,[2],6.18 G/DL
same,URIC ACID,[2],0.66 mg/dL
same,ALANINE AMINOTRANSFERASE,[3],29.6 u/L
same,ALBUMIN,[3],3.6 G/DL
same,ALKALINE PHOSPHATASE,[3],128.89 u/L
same,ASPARTATE AMINOTRANSFERASE,[3],84.7 u/L
same,BLOOD UREA NITROGEN,[3],17.7 mg/dL
same,CHLORIDE,[3],105.6 MEQ/L
same,CHOLESTEROL,[3],62.1 mg/dL
same,CREATINE PHOSPHOKINASE,[3],292.2 u/L
same,CREATININE,[3],0.65 mg/dL
same,GLUCOSE,[3],136.2 mg/dL
same,LACTATE DEHYDROGENASE,[3],129.6 u/L
same,LIPASE,[3],17.1 u/L
same,PHOSPHORUS,[3],10.04 mg/dL
same,POTASSIUM,[3],6.81 MEQ/L
same,SODIUM,[3],152.5 MEQ/L
same,TOTAL BILIRUBIN,[3],0.26 mg/dL
same,TOTAL PROTEIN,[3],6.48 G/DL
same,URIC ACID,[3],1.45 mg/dL
same,ABSOLUTE BASOPHIL,[4],0 CELLS/uL
same,ABSOLUTE EOSINOPHIL,[4],0 CELLS/uL
same,ABSOLUTE LYMPHOCYTE,[4],7637.67 CELLS/uL
same,ABSOLUTE MONOCYTE,[4],67.83 CELLS/uL
same,ABSOLUTE SEGMENTED NEUTROPHIL,[4],661.17 CELLS/uL
same,BASOPHIL,[4],0%

# — ChEMBL document CHEMBL3885881, “DrugMatrix”
